In patent publication US20200095280A1, “Methods of using GM6 in diagnosing and treating Alzheimers disease” (Genervon Biopharmaceuticals LLC, priority 2016, published 2020):
Where no end group is shown, it is not given here.

Assay: Blood brain barrier transit: ELISA of brain homogenate after IV injection
Assay type: in vivo, C57BL6 mice
Conditions: single bolus IV 0.2 and 2.0 mg/kg, four hours; vs control P=0.0001
Description: The ability to transit to the brain was tested. C57BL6 mice were injected with a single bolus IV tail vein injection of GM6 at 0.2 and 2.0 mg/kg. At four hours, the animals were sacrificed, and half of the brain was frozen for ELISA analysis.

## FSRYAR [GM6, FSRYAR]
  GM6 in brain homogenate supernatant (ELISA): detected GM6 at statistically significant levels
